Measured values: PubChem BioAssay AID2060617 (Molecular Pharmacology Branch, DTP, NCI, 2025)
Several values for one entry are separate records, joined by “and”; a condition that tells them apart may be missing. Identical values can stand only once.

Test system: 485368-065-R4-J2-PDC spheroids with HUVEC/MSC, viability
Experiment: Anticancer human tumor 485368-065-R4-J2-PDC patient-derived pancreatic carcinoma cell line growth inhibition [CLK]
Conditions: for viability, T/C: stronger effect = lower value
In short: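 Multi-cell-type spheroids combined patient-derived tumor cells with HUVEC endothelial cells and human mesenchymal stem cells. Paired agents were dosed in half-log steps down from about clinical Cmax, or from 10 microM where Cmax was unknown.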

[1] = curve of first compound, second compound 0.0316 µM
[2] = curve of first compound, second compound 0.1 µM
[3] = curve of first compound, second compound 0.316 µM
[4] = curve of first compound, second compound 1 µM
[5] = curve of first compound, second compound 3.16 µM
[6] = curve of first compound, second compound 10 µM
[7] = second compound 0.0316 µM, first compound 0.0316 µM
[8] = second compound 0.0316 µM, first compound 0.1 µM
[9] = second compound 0.0316 µM, first compound 0.316 µM
[10] = second compound 0.0316 µM, first compound 1 µM
[11] = second compound 0.0316 µM, first compound 3.16 µM
[12] = second compound 0.0316 µM, first compound 10 µM
[13] = second compound 0.1 µM, first compound 0.0316 µM
[14] = second compound 0.1 µM, first compound 0.1 µM
[15] = second compound 0.1 µM, first compound 0.316 µM
[16] = second compound 0.1 µM, first compound 1 µM
[17] = second compound 0.1 µM, first compound 3.16 µM
[18] = second compound 0.1 µM, first compound 10 µM
[19] = second compound 0.316 µM, first compound 0.0316 µM
[20] = second compound 0.316 µM, first compound 0.1 µM
[21] = second compound 0.316 µM, first compound 0.316 µM
[22] = second compound 0.316 µM, first compound 1 µM
[23] = second compound 0.316 µM, first compound 3.16 µM
[24] = second compound 0.316 µM, first compound 10 µM
[25] = second compound 1 µM, first compound 0.0316 µM
[26] = second compound 1 µM, first compound 0.1 µM
[27] = second compound 1 µM, first compound 0.316 µM
[28] = second compound 1 µM, first compound 1 µM
[29] = second compound 1 µM, first compound 3.16 µM
[30] = second compound 1 µM, first compound 10 µM
[31] = second compound 3.16 µM, first compound 0.0316 µM
[32] = second compound 3.16 µM, first compound 0.1 µM
[33] = second compound 3.16 µM, first compound 0.316 µM
[34] = second compound 3.16 µM, first compound 1 µM
[35] = second compound 3.16 µM, first compound 3.16 µM
[36] = second compound 3.16 µM, first compound 10 µM
[37] = second compound 10 µM, first compound 0.0316 µM
[38] = second compound 10 µM, first compound 0.1 µM
[39] = second compound 10 µM, first compound 0.316 µM
[40] = second compound 10 µM, first compound 1 µM
[41] = second compound 10 µM, first compound 3.16 µM
[42] = second compound 10 µM, first compound 10 µM
[43] = second compound 0.0316 µM, first compound 0.000949 µM
[44] = second compound 0.0316 µM, first compound 0.003 µM
[45] = second compound 0.0316 µM, first compound 0.00949 µM
[46] = second compound 0.0316 µM, first compound 0.03 µM
[47] = second compound 0.0316 µM, first compound 0.0949 µM
[48] = second compound 0.0316 µM, first compound 0.3 µM
[49] = second compound 0.1 µM, first compound 0.000949 µM
[50] = second compound 0.1 µM, first compound 0.003 µM
[51] = second compound 0.1 µM, first compound 0.00949 µM
[52] = second compound 0.1 µM, first compound 0.03 µM
[53] = second compound 0.1 µM, first compound 0.0949 µM
[54] = second compound 0.1 µM, first compound 0.3 µM
[55] = second compound 0.316 µM, first compound 0.000949 µM
[56] = second compound 0.316 µM, first compound 0.003 µM
[57] = second compound 0.316 µM, first compound 0.00949 µM
[58] = second compound 0.316 µM, first compound 0.03 µM
[59] = second compound 0.316 µM, first compound 0.0949 µM
[60] = second compound 0.316 µM, first compound 0.3 µM
[61] = second compound 1 µM, first compound 0.000949 µM
[62] = second compound 1 µM, first compound 0.003 µM
[63] = second compound 1 µM, first compound 0.00949 µM
[64] = second compound 1 µM, first compound 0.03 µM
[65] = second compound 1 µM, first compound 0.0949 µM
[66] = second compound 1 µM, first compound 0.3 µM
[67] = second compound 3.16 µM, first compound 0.000949 µM
[68] = second compound 3.16 µM, first compound 0.003 µM
[69] = second compound 3.16 µM, first compound 0.00949 µM
[70] = second compound 3.16 µM, first compound 0.03 µM
[71] = second compound 3.16 µM, first compound 0.0949 µM
[72] = second compound 3.16 µM, first compound 0.3 µM
[73] = second compound 10 µM, first compound 0.000949 µM
[74] = second compound 10 µM, first compound 0.003 µM
[75] = second compound 10 µM, first compound 0.00949 µM
[76] = second compound 10 µM, first compound 0.03 µM
[77] = second compound 10 µM, first compound 0.0949 µM
[78] = second compound 10 µM, first compound 0.3 µM
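Note: spheroids exposed to compounds for seven days.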
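Throughout, for viability, T/C: 100% = DMSO vehicle control wells.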

CC1(C)CCC(CN2CCN(c3ccc(C(=O)NS(=O)(=O)c4ccc(NCC5CCOCC5)c([N+](=O)[O-])c4)c(Oc4cnc5[nH]ccc5c4)c3)CC2)=C(c2ccc(Cl)cc2)C1 + CN1CCN(c2cc(C(=O)Nc3cc4cc(-c5cnn(C)c5)ccc4cn3)ccn2)CC1
IC50 [1]: 8030 nM
IC50 [2]: 7820 nM
IC50 [3]: 6550 nM
IC50 [4]: < 31.6 nM
IC50 [5]: < 31.6 nM
IC50 [6]: < 31.6 nM
viability, T/C [7]: 102%
viability, T/C [8]: 112%
viability, T/C [9]: 114%
viability, T/C [10]: 111%
viability, T/C [11]: 122%
viability, T/C [12]: 35.4%
viability, T/C [13]: 113%
viability, T/C [14]: 112%
viability, T/C [15]: 112%
viability, T/C [16]: 113%
viability, T/C [17]: 121%
viability, T/C [18]: 32.4%
viability, T/C [19]: 86.8%
viability, T/C [20]: 97.2%
viability, T/C [21]: 94.6%
viability, T/C [22]: 95.3%
viability, T/C [23]: 104%
viability, T/C [24]: 23.5%
viability, T/C [25]: 2.85%
viability, T/C [26]: 0.83%
viability, T/C [27]: 2.34%
viability, T/C [28]: 1.27%
viability, T/C [29]: 1.79%
viability, T/C [30]: 3.68%
viability, T/C [31]: 2.29%
viability, T/C [32]: 1.33%
viability, T/C [33]: 2.68%
viability, T/C [34]: 2.94%
viability, T/C [35]: 3.79%
viability, T/C [36]: 3.42%
viability, T/C [37]: 1.77%
viability, T/C [38]: 2.36%
viability, T/C [39]: 4.56%
viability, T/C [40]: 5.88%
viability, T/C [41]: 3.51%
viability, T/C [42]: 1.68%

C=CC(=O)N1CCN(c2nc(=O)n(-c3c(C)ccnc3C(C)C)c3nc(-c4c(O)cccc4F)c(F)cc23)C(C)C1 (configuration not stated)
viability, T/C (compound 0.0316 µM): 96.8% and 96.9%
viability, T/C (compound 0.1 µM): 96.4% and 107%
viability, T/C (compound 0.316 µM): 99.8% and 100%
viability, T/C (compound 1 µM): 97.9% and 106%
viability, T/C (compound 3.16 µM): 92.3% and 88.3%
viability, T/C (compound 10 µM): 89.2% and 93.7%
IC50 (curve of compound): > 10000 nM

COc1cccc2c1C(=O)c1c(O)c3c(c(O)c1C2=O)CC(O)(C(=O)CO)CC3OC1CC(N)C(O)C(C)O1 (configuration not stated)
viability, T/C (compound 0.0316 µM): 98.8% and 100%
viability, T/C (compound 0.1 µM): 102% and 91.6%
viability, T/C (compound 0.316 µM): 67.6% and 66.2%
viability, T/C (compound 1 µM): 35% and 37.2%
viability, T/C (compound 3.16 µM): 7.33% and 9.65%
viability, T/C (compound 10 µM): 19.4% and 24.4%
IC50 (curve of compound): 574 nM and 566 nM

CC(CO)NC(=O)c1cc(-c2ccc(Cl)cc2)nn(-c2cnn(C)c2)c1=O (configuration not stated) + CNC(=O)c1ccc(Nc2nc(OC3CCCC3)c3c(-c4ccc5nc(C)oc5c4)c[nH]c3n2)c(OC)c1
IC50 [1]: > 10000 nM
IC50 [2]: > 10000 nM
IC50 [3]: > 10000 nM
IC50 [4]: > 10000 nM
IC50 [5]: > 10000 nM
IC50 [6]: > 10000 nM
viability, T/C [7]: 87.9%
viability, T/C [8]: 94.3%
viability, T/C [9]: 87.9%
viability, T/C [10]: 101%
viability, T/C [11]: 89.8%
viability, T/C [12]: 103%
viability, T/C [13]: 90.5%
viability, T/C [14]: 97%
viability, T/C [15]: 93.6%
viability, T/C [16]: 103%
viability, T/C [17]: 92.8%
viability, T/C [18]: 97.8%
viability, T/C [19]: 82.8%
viability, T/C [20]: 84.2%
viability, T/C [21]: 82.5%
viability, T/C [22]: 75.4%
viability, T/C [23]: 86.4%
viability, T/C [24]: 85.9%
viability, T/C [25]: 83.7%
viability, T/C [26]: 69.9%
viability, T/C [27]: 73.3%
viability, T/C [28]: 73.9%
viability, T/C [29]: 70.2%
viability, T/C [30]: 77.1%
viability, T/C [31]: 72.3%
viability, T/C [32]: 67.2%
viability, T/C [33]: 71%
viability, T/C [34]: 70.6%
viability, T/C [35]: 69.3%
viability, T/C [36]: 76%
viability, T/C [37]: 64.9%
viability, T/C [38]: 71.2%
viability, T/C [39]: 69.6%
viability, T/C [40]: 66.6%
viability, T/C [41]: 72.8%
viability, T/C [42]: 70.7%

CC(C)CC(NC(=O)C(Cc1ccccc1)NC(=O)c1cnccn1)B(O)O (configuration not stated) + CN1CCN(c2cc(C(=O)Nc3cc4cc(-c5cnn(C)c5)ccc4cn3)ccn2)CC1
IC50 [1]: 6.99 nM
IC50 [2]: 6.16 nM
IC50 [3]: 2.36 nM
IC50 [4]: < 0.949 nM
IC50 [5]: < 0.949 nM
IC50 [6]: < 0.949 nM
viability, T/C [43]: 93.5%
viability, T/C [44]: 118%
viability, T/C [45]: 29.8%
viability, T/C [46]: 14.3%
viability, T/C [47]: 8.25%
viability, T/C [48]: 4.1%
viability, T/C [49]: 102%
viability, T/C [50]: 92.2%
viability, T/C [51]: 24.4%
viability, T/C [52]: 14.3%
viability, T/C [53]: 7.86%
viability, T/C [54]: 3.66%
viability, T/C [55]: 89.5%
viability, T/C [56]: 39.8%
viability, T/C [57]: 14.8%
viability, T/C [58]: 8.49%
viability, T/C [59]: 4.29%
viability, T/C [60]: 2.89%
viability, T/C [61]: 1%
viability, T/C [62]: 3.72%
viability, T/C [63]: 2.87%
viability, T/C [64]: 1.87%
viability, T/C [65]: 3.57%
viability, T/C [66]: 3.73%
viability, T/C [67]: 1.35%
viability, T/C [68]: 4.02%
viability, T/C [69]: 3%
viability, T/C [70]: 3.03%
viability, T/C [71]: 3.95%
viability, T/C [72]: 4.37%
viability, T/C [73]: 1.26%
viability, T/C [74]: 3.6%
viability, T/C [75]: 2.94%
viability, T/C [76]: 1.87%
viability, T/C [77]: 2.33%
viability, T/C [78]: 1.8%

CC(C)CC(NC(=O)C(Cc1ccccc1)NC(=O)c1cnccn1)B(O)O (configuration not stated) + CNC(=O)c1ccc(Nc2nc(OC3CCCC3)c3c(-c4ccc5nc(C)oc5c4)c[nH]c3n2)c(OC)c1
IC50 [1]: 7.22 nM
IC50 [2]: 7.19 nM
IC50 [3]: 7.21 nM
IC50 [4]: 6.69 nM
IC50 [5]: 5.66 nM
IC50 [6]: 4.91 nM
viability, T/C [43]: 99.6%
viability, T/C [44]: 122%
viability, T/C [45]: 31.1%
viability, T/C [46]: 16.4%
viability, T/C [47]: 13.2%
viability, T/C [48]: 3.24%
viability, T/C [49]: 95.3%
viability, T/C [50]: 115%
viability, T/C [51]: 32.5%
viability, T/C [52]: 13.6%
viability, T/C [53]: 11.8%
viability, T/C [54]: 3.58%
viability, T/C [55]: 94.3%
viability, T/C [56]: 112%
viability, T/C [57]: 33.4%
viability, T/C [58]: 12.5%
viability, T/C [59]: 10.1%
viability, T/C [60]: 3.9%
viability, T/C [61]: 102%
viability, T/C [62]: 101%
viability, T/C [63]: 28%
viability, T/C [64]: 12.9%
viability, T/C [65]: 7.65%
viability, T/C [66]: 1.74%
viability, T/C [67]: 89.4%
viability, T/C [68]: 89.7%
viability, T/C [69]: 17.9%
viability, T/C [70]: 7.21%
viability, T/C [71]: 5.69%
viability, T/C [72]: 2.56%
viability, T/C [73]: 77.9%
viability, T/C [74]: 78.2%
viability, T/C [75]: 12.5%
viability, T/C [76]: 5.34%
viability, T/C [77]: 4.07%
viability, T/C [78]: 1.36%
